From patent publication US4556671A, “Pharmaceutical formulations” (Burroughs Wellcome Co., priority 1981, dated 1985) come the findings set out here.

The test system of one experiment is mice. The experiment can be described thus: PBQ-Induced Algesia. The settings on record: Mus musculus, po, read-out: ED50 (reduction of number of stretches by 50%). Type of experiment: in vivo. The procedure:
An irritant, p-phenylbenzquinone (PBQ), was administered to mice intraperitoneally at a dose of 5 mg/kg to elicit a stretch-reflex in the animal. The number of stretches in 25 minute period were counted.

The next experiment deals with Female Wistar rats. The experiment in a line: Acute Anti-inflammatory Activity: Carrageenin Test. Type of experiment: in vivo, rat. The procedure:
Female Wistar rats (100-150 g, groups of 5) were starved for approximately 24 hours prior to testing and througout the experimental period. Water was available ad. lib. […] A control group received Celacol alone. Immediately after dosing, each rat received, in a plantar area of the left hind foot, an injection of 0.1 ml of the supernatant of a 30 mg/ml suspension of carrageenin in 0.9% saline. The thickness of the foot was measured with calipers 1 hour and 4 hours after the carrageenin injection. The increases in foot thickness during this time was compared with those of the control group and the percentage reduction in swelling calculated for each tested group.

Another experiment has as its system Prostaglandin. The experiment in a line: Carrageenin-impregnated sponge inflammatory exudates: prostaglandin concentration. It counts as in vivo, rat. The settings on record: 24 hours. Here is the method:
(§1) The sponges were removed after 24 hours, immersed in 5 ml herparinised saline and squeezed until dry.

A further experiment relates to Leukocyte Migration. The experiment in a line: Carrageenin-impregnated sponge inflammatory exudates: leukocyte migration. Type of experiment: in vivo, rat. The following applies: 24 hours. Here is the method:
as §1

The target in the next experiment is lipoxygenase. The experiment can be described thus: Inhibition of Lipoxygenase (enzyme assay, Blackwell and Flower). It counts as biochemical.
The next experiment concerns HETE. The experiment can be described thus: Production of HETE (enzyme assay, Blackwell and Flower). It counts as biochemical. The settings on record: 100 μg/ml.
For experiment [1], the system named is cyclo-oxygenase and lipoxygenase.
[2] abbreviates: 30 mins prior to PBQ 5 mg/kg intraperitoneally, stretches in 25 minutes.
The mark [3] stands for this setting: rat, oral, suspension in 0.25% Celacol, reduction in foot swelling 1 to 4 hours after carrageenin, read-out: ED50.

≈ marks a conversion by molar mass, not a printed value. Where two headings read alike, the source gives them in different places.

Consider `CC(=O)Oc1ccccc1C(=O)O` [Aspirin, reference compound], for which the ED50 (as a rule, the midpoint of the dose-response relation) in the experiment on mice stood at 70 mg/kg; with Female Wistar rats (Rattus norvegicus, po, 4 h), 70 mg/kg.
Take `C[C@@H]1C[C@H]2[C@@H]3CCC4=CC(=O)C=C[C@]4(C)[C@@]3(F)[C@@H](O)C[C@]2(C)[C@@]1(O)C(=O)CO` [Dexamethasone]: the “Reduction of Prostaglandin Concentration” value with Prostaglandin (0.1 mg/kg i.m., s.e.m) is on record as 64% ± 6; in the experiment on Prostaglandin (0.1 mg/kg p.o.), ~ 30%. Moreover, the “Inhibition of Leukocyte Migration” value is reported as 62% ± 17 in the experiment on Leukocyte Migration (0.1 mg/kg i.m., s.e.m) and ~ 30% in the experiment on Leukocyte Migration (0.1 mg/kg p.o.).
With `NC1=NN(c2cccc(C(F)(F)F)c2)CC1` [Example 1, 3-Amino-1-(m-trifluoromethylphenyl)pyrazol-2-ine], the “IC50 (lipoxygenase)” value against lipoxygenase stood at 0.72 µg/mL (≈ 3.14 µM). Moreover, the ED50 in the experiment with mice (setting [2]) came to 20.6 mg/kg; in the experiment with Female Wistar rats (setting [3]), 11 mg/kg. In addition, the “Inhibition of Leukocyte Migration” value with Leukocyte Migration (50 mg/kg p.o., s.e.m) is recorded as 73% ± 9. The “reduction of the production of HETE” value in the experiment on HETE is recorded as “less than 20%”. Further, the “inhibition of cyclo-oxygenase and lipoxygenase activity (in words)” value in experiment [1] is “equally active in inhibiting cyclo-oxygenase and lipoxygenase activity”. In addition, the “doses at which cyclo-oxygenase and lipoxygenase are inhibited (in words)” value in experiment [1] (compared with the other heterocyclic compounds of formula (I)) is recorded as “at doses substantially below those of the other heterocyclic compounds of formula (I)”.
With `NC1=NN(c2ccc(Cl)cc2)CC1` [Example 6, 3-Amino-1-p-chlorophenyl-2-pyrazoline], the results for the ED50 in the experiment on mice (setting [2]) and in the experiment on Female Wistar rats (setting [3]) were 13 mg/kg and 22 mg/kg, respectively.
Turning to `NC1=NN(c2ccccc2)CC1` [Example 7, 3-Amino-1-phenyl-2-pyrazoline], the ED50 in the experiment with Female Wistar rats (setting [3]) amounted to 60 mg/kg.
On the same count and under the same terms, for `CC1CC(N)=NN1c1ccc(Cl)cc1.Cl` (centres unmarked) [Example 24, 3-Amino-1-p-chlorophenyl-5-methyl-2-pyrazoline hydrochloride] the value was 36 mg/kg.
As to `COc1ccc2c(c1)c(CC(=O)O)c(C)n2C(=O)c1ccc(Cl)cc1` [Indomethacin], the “Reduction of Prostaglandin Concentration” value in the experiment with Prostaglandin (4 mg/kg p.o.) amounted to 98%. In addition, in the experiment on Leukocyte Migration (4 mg/kg p.o., s.e.m), the “Inhibition of Leukocyte Migration” value was 26% ± 7.
As for `CCCCC1C(=O)N(c2ccccc2)N(c2ccccc2)C1=O` [Phenylbutazone, reference compound], in the experiment with Female Wistar rats (setting [3]), the ED50 is 22 mg/kg.
